The results in this text go back to ChEMBL document CHEMBL1201862, “PubChem BioAssay data set” (2004).

Each structure is given as a SMILES string.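 Dose response: 5 concentrations. Exposure: 48 h. Format: 96-well plates. Endpoint: linear interpolation; highest concentration if not reached. GI50 is the concentration that inhibits growth by half.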 Calls of active or inactive are those of the source. Cut-off read from the data, not from the text of the source: active = GI50 up to about 1.1 µM and inactive = higher.

Test systems include M14; OVCAR-8; NCI-H460; NCI-H226; UO-31; 786-0; HCC 2998; MDA-MB-435; HL-60; SNB-19; SN12C; KM12; NCI-H522; A549; OVCAR-4; HT-29; SF-539; HCT-15; RXF 393; A498.
Assay in all cases: DTP human tumour cell line panel, 48 h

Take `COc1cccc(/N=N/C(=NNC(=O)c2ccc(C)cc2)c2ccc(N(C)C)cc2)c1`: the GI50 in the assay with M14, in the assay with OVCAR-8, in the assay on NCI-H460, with NCI-H226, in the assay on UO-31 and with 786-0 was > 100 µM (inactive) throughout. The GI50 in the assay on HCC 2998 is > 100 µM (inactive); with MDA-MB-435, 21.1 µM (inactive); in the assay on HL-60, > 100 µM (inactive); with SNB-19, > 100 µM (inactive); with SN12C, > 100 µM (inactive); with KM12, > 100 µM (inactive). The GI50 was > 100 µM (inactive) in the assay with NCI-H522; > 100 µM (inactive) with A549; > 100 µM (inactive) in the assay on OVCAR-4; > 100 µM (inactive) in the assay on HT-29; > 100 µM (inactive) in the assay with SF-539; > 100 µM with HCT-15.
`C=C[C@@H](C)[C@]1(C(=O)OC)CCCC12OCCO2`: the GI50 in the assay on M14 is > 100 µM (inactive); with OVCAR-8, > 100 µM (inactive); in the assay with NCI-H460, > 100 µM (inactive); with NCI-H226, > 100 µM (inactive); in the assay with UO-31 it was > 100 µM (inactive); in the assay with 786-0 it was 63.8 µM (inactive). Also, the GI50 in the assay with HCC 2998, with RXF 393, in the assay on HL-60, with SNB-19, with A498 and in the assay on SN12C was > 100 µM (inactive) each time. In addition, the GI50 in the assay with KM12 was > 100 µM (inactive); with NCI-H522 it was 82.2 µM (inactive); in the assay on A549, > 100 µM (inactive); in the assay with OVCAR-4 it was > 100 µM (inactive); with HT-29 it was > 100 µM (inactive); in the assay on SF-539, > 100 µM (inactive). The molecule also gave a GI50 in the assay on HCT-15 of 94.2 µM.
Take `Cc1cc(C)c2c(c1)C/C(=C\c1cccc(C)c1C(=O)O)C2=O`: the GI50 with M14 was 88.9 µM (inactive); with OVCAR-8, 52.7 µM (inactive); with NCI-H460 it was 41.8 µM (inactive); with NCI-H226, 44.2 µM (inactive); in the assay with UO-31, 39.6 µM (inactive); with 786-0 it was 57.3 µM (inactive). The GI50 in the assay with HCC 2998 is 66.5 µM (inactive); with RXF 393 it was 72.9 µM (inactive); with HL-60, > 100 µM (inactive); in the assay with SNB-19, 59.6 µM (inactive); with A498, 63.1 µM (inactive); with SN12C, 42.6 µM (inactive). Moreover, the GI50 with KM12 is 51.6 µM (inactive); in the assay with NCI-H522, 30.8 µM (inactive); with A549 it was 43.3 µM (inactive); in the assay with OVCAR-4, 75 µM (inactive); in the assay with HT-29, 72.6 µM (inactive); in the assay on SF-539 it was 37.2 µM (inactive). In addition, it took 49.5 µM to inhibit growth in the assay with HCT-15 by half (GI50).
Consider `COc1ccc(/N=C2\C(=N/c3ccc(OC)cc3)N(c3ccccc3[N+](=O)[O-])C(=S)N2c2ccc(OC)cc2)cc1`, for which the GI50 is > 100 µM (inactive) with M14; > 100 µM (inactive) in the assay on OVCAR-8; 61.9 µM (inactive) with NCI-H226; 78 µM (inactive) in the assay on UO-31; > 100 µM (inactive) in the assay with 786-0; > 100 µM (inactive) in the assay on HCC 2998. For the same molecule, the GI50 in the assay with MDA-MB-435 is > 100 µM (inactive); in the assay on RXF 393, 23.9 µM (inactive); in the assay on SNB-19, > 100 µM (inactive); in the assay on SN12C, > 100 µM (inactive); in the assay with KM12, > 100 µM (inactive); with NCI-H522, 96.4 µM (inactive). For the same molecule, the GI50 is > 100 µM (inactive) with A549, > 100 µM (inactive) with SF-539 and > 100 µM with HCT-15.
`C=CCC1(C)CCCCC1(O)C[S+]([O-])c1ccccc1` (stereo not drawn): the GI50 with M14 was > 100 µM (inactive); in the assay with OVCAR-8 it was > 100 µM (inactive); with NCI-H460, > 100 µM (inactive); in the assay on NCI-H226, 20.9 µM (inactive); in the assay on UO-31, > 100 µM (inactive); in the assay on 786-0 it was > 100 µM (inactive). Further, the GI50 is > 100 µM (inactive) in the assay with HCC 2998; > 100 µM (inactive) in the assay with RXF 393; 54.5 µM (inactive) in the assay with HL-60; > 100 µM (inactive) in the assay on SNB-19; > 100 µM (inactive) in the assay with A498; > 100 µM (inactive) in the assay on SN12C. Further, the GI50 with KM12, in the assay with NCI-H522, in the assay on A549, in the assay with OVCAR-4, in the assay with HT-29 and with SF-539 was > 100 µM (inactive) throughout. For the same molecule, the GI50 in the assay on HCT-15 was > 100 µM.
As for `O=C1C[C@@H]2C(COC(=O)c3ccccc3)N(OCc3ccccc3)C[C@@H]2O1` (stereo partly drawn), the GI50 in the assay with M14, in the assay with OVCAR-8, in the assay with NCI-H460, in the assay with NCI-H226, with UO-31 and in the assay with 786-0 was > 100 µM (inactive) each time. Also, the GI50 in the assay with HCC 2998, in the assay on RXF 393, in the assay with HL-60, in the assay on SNB-19, in the assay on A498 and with SN12C was > 100 µM (inactive) throughout. For the same molecule, the GI50 in the assay with KM12, with NCI-H522, in the assay on A549, with OVCAR-4, in the assay with HT-29 and in the assay on SF-539 was > 100 µM (inactive) throughout. For the same molecule, in the assay with HCT-15, the GI50 was > 100 µM.
`CCCCCCCCCCCCC(SCCNC(=O)CCNC(=O)C(O)C(C)(C)COP(=O)(O)OP(=O)(O)OCC1OC(n2cnc3c(N)ncnc32)C(O)C1OP(=O)(O)O)C(=O)NCC(N)=O` (stereo not drawn): the GI50 was > 100 µM (inactive) with M14; > 100 µM (inactive) in the assay on OVCAR-8; 91.6 µM (inactive) in the assay with NCI-H460; 79.6 µM (inactive) with NCI-H226; 64.9 µM (inactive) in the assay on UO-31; > 100 µM (inactive) with 786-0. In addition, the GI50 was > 100 µM (inactive) in the assay on HCC 2998; 36 µM (inactive) with RXF 393; 72.9 µM (inactive) in the assay on HL-60; 66.7 µM (inactive) in the assay with SNB-19; > 100 µM (inactive) in the assay on A498; 40.1 µM (inactive) with SN12C. Further, the GI50 with KM12 was > 100 µM (inactive); in the assay on NCI-H522, 69.2 µM (inactive); with A549, > 100 µM (inactive); in the assay with OVCAR-4, > 100 µM (inactive); in the assay on HT-29 it was > 100 µM (inactive); with SF-539, 52.2 µM (inactive). Also, the GI50 in the assay on HCT-15 is > 100 µM.
Regarding `O=S(=O)(O)SC/C=C\CSS(=O)(=O)O`, the GI50 in the assay with M14 is > 100 µM (inactive); with OVCAR-8 it was > 100 µM (inactive); in the assay on NCI-H460 it was 42.2 µM (inactive); in the assay on NCI-H226, > 100 µM (inactive); with UO-31, > 100 µM (inactive); in the assay on 786-0, > 100 µM (inactive). For the same molecule, the GI50 in the assay on HCC 2998, in the assay with RXF 393, in the assay with HL-60, in the assay with SNB-19, with A498 and with SN12C was > 100 µM (inactive) throughout. The GI50 in the assay with KM12, with NCI-H522, in the assay on A549, in the assay on OVCAR-4, in the assay with HT-29 and in the assay on SF-539 was > 100 µM (inactive) in each case. Also, it took 65.8 µM to inhibit growth in the assay with HCT-15 by half (GI50).
For the molecule `C1=NN(Cc2ccccc2)C(N(Cc2ccccc2)Cc2ccccc2)N1` (stereo not drawn), the GI50 in the assay with M14 was 11 µM (inactive); in the assay with OVCAR-8, 23.9 µM (inactive); in the assay with NCI-H460, 18.1 µM (inactive); in the assay with NCI-H226, 18.5 µM (inactive); in the assay with UO-31, 14.2 µM (inactive); in the assay on 786-0 it was 17.8 µM (inactive). Moreover, the GI50 in the assay on HCC 2998 is 17.5 µM (inactive); in the assay on RXF 393 it was 16.2 µM (inactive); in the assay with HL-60, 4.91 µM (inactive); in the assay on SNB-19, 20.9 µM (inactive); in the assay with A498, 17.7 µM (inactive); in the assay on SN12C, 17 µM (inactive). The GI50 in the assay on KM12 is 16.3 µM (inactive); in the assay on NCI-H522, 15.7 µM (inactive); with A549, 16.3 µM (inactive); in the assay with OVCAR-4, 15.8 µM (inactive); with HT-29 it was 15.2 µM (inactive); in the assay with SF-539, 15.4 µM (inactive). It took 16.1 µM to inhibit growth in the assay on HCT-15 by half (GI50).
For `CCOc1ccc(NC(=O)CC2SC(Nc3ccc(Cl)cc3)=NC2=O)cc1` (stereo not drawn), the GI50 in the assay on M14 was > 100 µM (inactive); with OVCAR-8, 49.7 µM (inactive); in the assay on NCI-H460, > 100 µM (inactive); in the assay with NCI-H226, > 100 µM (inactive); in the assay with UO-31, > 100 µM (inactive); with 786-0, > 100 µM (inactive). Besides, the GI50 in the assay on HCC 2998 was > 100 µM (inactive); with RXF 393, 40.8 µM (inactive); with HL-60 it was 24.2 µM (inactive); in the assay with SNB-19, > 100 µM (inactive); in the assay on A498 it was 44.8 µM (inactive); in the assay with SN12C, > 100 µM (inactive). The GI50 in the assay on KM12 was > 100 µM (inactive); with NCI-H522, > 10 µM (inactive); with A549, > 100 µM (inactive); in the assay with OVCAR-4, > 100 µM (inactive); in the assay on HT-29, > 100 µM (inactive); in the assay on SF-539 it was > 100 µM (inactive). In the assay with HCT-15, the GI50 is 95.3 µM.
For the molecule `O=c1/c(=C/c2ccc3c(c2)OCO3)sc2nnc(Cc3ccccc3)n12`, the GI50 in the assay with M14, in the assay with OVCAR-8, in the assay on NCI-H460, in the assay on NCI-H226, in the assay with UO-31 and in the assay with 786-0 was > 100 µM (inactive) in each case. Moreover, the GI50 with HCC 2998 was 81.8 µM (inactive); with RXF 393, > 100 µM (inactive); with HL-60 it was > 100 µM (inactive); with SNB-19, > 100 µM (inactive); in the assay on A498, > 100 µM (inactive); in the assay with SN12C, > 100 µM (inactive). Further, the GI50 is > 100 µM (inactive) in the assay with KM12; 92.3 µM (inactive) in the assay on NCI-H522; > 100 µM (inactive) in the assay with A549; > 100 µM (inactive) with OVCAR-4; > 100 µM (inactive) with SF-539; > 100 µM in the assay on HCT-15.
